Experimental data published in ChEMBL document CHEMBL6120973 (J Med Chem, 2024).

Legend:
[1] = system: Human immunodeficiency virus 1; experiment: Antiviral activity against wildtype HIV-1 IIIB infected in human MT4 cells assessed as protection against virus-induced cytopathic effect incubated for 5 days by MTT assay; assay type: functional, organism-based; conditions: Human immunodeficiency virus 1, IIIB, MT4, 120 h
[2] = Cytotoxicity against human MT4 cells assessed as reduction in cell viability measured after 5 days by MTT assay; conditions: MT4 cells
[3] = system: Human immunodeficiency virus 1; experiment: Antiviral activity against HIV-1 harboring RT L100I mutant infected in human MT4 cells assessed as protection against virus-induced cytopathic effect incubated for 5 days by MTT assay; assay type: functional, organism-based; conditions: Human immunodeficiency virus 1, MT4, 120 h
[4] = system: Human immunodeficiency virus 1; experiment: Antiviral activity against HIV-1 harboring RT K103N mutant infected in human MT4 cells assessed as protection against virus-induced cytopathic effect incubated for 5 days by MTT assay; assay type: functional, organism-based; conditions: Human immunodeficiency virus 1, MT4, 120 h
[5] = system: Human immunodeficiency virus 1; experiment: Antiviral activity against HIV-1 harboring RT Y181C mutant infected in human MT4 cells assessed as protection against virus-induced cytopathic effect incubated for 5 days by MTT assay; assay type: functional, organism-based; conditions: Human immunodeficiency virus 1, MT4, 120 h
[6] = system: Human immunodeficiency virus 1; experiment: Antiviral activity against HIV-1 harboring RT F227L/V106A double mutant infected in human MT4 cells assessed as protection against virus-induced cytopathic effect incubated for 5 days by MTT assay; assay type: functional, organism-based; conditions: Human immunodeficiency virus 1, MT4, 120 h
[7] = Selectivity index, ratio of CC50 for human MT4 cells to EC50 for wild type HIV-1 IIIB infected in human MT4 cellS
[8] = system: Human immunodeficiency virus 1; experiment: Antiviral activity against HIV-1 harboring RT Y188L mutant infected in human MT4 cells assessed as protection against virus-induced cytopathic effect incubated for 5 days by MTT assay; assay type: functional, organism-based; conditions: Human immunodeficiency virus 1, MT4, 120 h
[9] = system: Human immunodeficiency virus 1; experiment: Antiviral activity against HIV-1 harboring RT E138K mutant infected in human MT4 cells assessed as protection against virus-induced cytopathic effect incubated for 5 days by MTT assay; assay type: functional, organism-based; conditions: Human immunodeficiency virus 1, MT4, 120 h
[10] = system: Human immunodeficiency virus 1; experiment: Antiviral activity against HIV-1 harboring RT K103N/Y181C double mutant infected in human MT4 cells assessed as protection against virus-induced cytopathic effect incubated for 5 days by MTT assay; assay type: functional, organism-based; conditions: Human immunodeficiency virus 1, MT4, 120 h
[11] = biological target: Human immunodeficiency virus type 1 reverse transcriptase (Human immunodeficiency virus 1, UniProt Q72547); experiment: Inhibition of recombinant wild type HIV-1 Reverse transcriptase incubated for 40 mins by Pico-green reagent based fluorescence analysis

Row | Structure (SMILES) | EC50 [1] | CC50 at 120 h [2] | EC50 [3] | EC50 [4] | EC50 [5] | EC50 [6] | selectivity ratio ([7]; MT4 cells) | EC50 [8] | EC50 [9] | EC50 [10] | IC50 [11] | selectivity ratio ([7]; mt4)
1 | O=C1Nc2ccc(Cl)cc2[C@@](C#CC2CC2)(C(F)(F)F)O1 [EFAVIRENZ] | 45 nM | > 7.49 µM | 24 nM | 59 nM | 6 nM | 181 nM |  |  |  |  |  | 
2 | Cc1cc(-c2ccncc2)cc(C)c1Nc1nc(Nc2ccc(C#N)cc2)ncc1-c1ccnc(F)c1 | 8 nM | > 256 µM | 94 nM | 7 nM | 45 nM | 1370 nM | > 31500 | 45 nM | 8 nM | 425 nM | 111 nM | 
3 | Cc1cc(-c2ccncc2)cc(C)c1Nc1nc(Nc2ccc(C#N)cc2)ncc1-c1cncc(Cl)c1 | 8 nM | > 248 µM | 117 nM | 37 nM | 78 nM | 1530 nM | > 32800 | 121 nM | 45 nM | 982 nM | 197 nM | 
4 | Cc1ccc(-c2cnc(Nc3ccc(C#N)cc3)nc2Nc2c(C)cc(-c3ccncc3)cc2C)cn1 | 5 nM | 198 µM | 49 nM | 6 nM | 47 nM | 496 nM | 38900 | 54 nM | 7 nM | 401 nM | 132 nM | 
5 | Cc1cn([C@H]2C[C@H](N=[N+]=[N-])[C@@H](CO)O2)c(=O)[nH]c1=O [ZIDOVUDINE] | 26 nM | > 248 µM |  | 25 nM | 37 nM | 28 nM |  | 33 nM | 30 nM |  |  | > 9710
6 | Cc1cc(-c2ccncc2)cc(C)c1Nc1nc(Nc2ccc(C#N)cc2)ncc1-c1ccnc(Cl)c1 | 6 nM | 158 µM | 55 nM | 19 nM | 56 nM | 1760 nM | 27300 | 83 nM | 26 nM | 597 nM | 98 nM | 
7 | Cc1cc(-c2ccncc2)cc(C)c1Nc1nc(Nc2ccc(C#N)cc2)ncc1-c1cccs1 | 11 nM | > 264 µM | 18 nM | 5 nM | 39 nM | 136 nM | > 24100 | 29 nM | 12 nM | 148 nM | 75 nM | 
8 | Cc1cc(-c2ccncc2)cc(C)c1Nc1nc(Nc2ccc(C#N)cc2)ncc1-c1ccc(N)nc1 | 8 nM | 4.87 µM | 39 nM | 11 nM | 41 nM | 1140 nM | 575 | 50 nM | 11 nM | 156 nM | 94 nM | 
9 | Cc1cc(-c2ccncc2)cc(C)c1Nc1nc(Nc2ccc(C#N)cc2)ncc1-c1ccco1 | 4 nM | 7.97 µM | 7 nM | 3 nM | 24 nM | 142 nM | 2060 | 15 nM | 7 nM | 102 nM | 84 nM | 
10 | Cc1cc(-c2ccncc2)cc(C)c1Nc1nc(Nc2ccc(C#N)cc2)ncc1-c1ccncc1 | 14 nM | > 266 µM | 92 nM | 23 nM | 139 nM | 1980 nM | > 19100 | 182 nM | 41 nM | 1170 nM | 59 nM | 
11 | Cc1cc(-c2ccncc2)cc(C)c1Nc1nc(Nc2ccc(C#N)cc2)ncc1-c1cncc(N)c1 | 6 nM | 6.38 µM | 29 nM | 7 nM | 51 nM | 323 nM | 1050 | 63 nM | 13 nM | 378 nM | 73 nM | 
12 | Cc1cc(-c2cnc(Nc3ccc(C#N)cc3)nc2Nc2c(C)cc(-c3ccncc3)cc2C)ccn1 | 9 nM | 14.9 µM | 71 nM | 21 nM | 75 nM | 1330 nM | 1630 | 93 nM | 29 nM | 942 nM | 127 nM | 
13 | COc1ncc(-c2cnc(Nc3ccc(C#N)cc3)nc2Nc2c(C)cc(-c3ccncc3)cc2C)cc1N | 7 nM | 81.1 µM | 48 nM | 10 nM | 31 nM | 1100 nM | 11300 | 66 nM | 14 nM | 114 nM |  | 
14 | N#Cc1ccc(Nc2ncc(-c3ccsc3)c(Nc3c(F)cc(-c4ccncc4)cc3F)n2)cc1 | 7 nM | 72.1 µM |  |  |  |  | 10100 |  |  |  | 73 nM | 
15 | COc1cc(-c2cnc(Nc3ccc(C#N)cc3)nc2Nc2c(C)cc(-c3ccncc3)cc2C)ccn1 | 9 nM | 59.9 µM | 51 nM | 21 nM | 61 nM | 611 nM | 6750 | 91 nM | 16 nM | 594 nM | 115 nM | 
16 | Cc1cc(-c2ccncc2)cc(C)c1Nc1nc(Nc2ccc(C#N)cc2)ncc1-c1ccsc1 | 6 nM | > 264 µM | 34 nM | 8 nM | 41 nM | 453 nM | > 45200 | 47 nM | 43 nM | 259 nM | 72 nM | 
17 | Cc1ccnc2c1NC(=O)c1cccnc1N2C1CC1 [NEVIRAPINE] |  | > 15 µM | 1790 nM |  |  | > 10000 nM |  | > 10000 nM | 142 nM | > 10000 nM |  | 
18 | Cc1cc(-c2ccncc2)cc(C)c1Nc1nc(Nc2ccc(C#N)cc2)ncc1-c1ccc(F)nc1 | 9 nM | 48.4 µM | 51 nM | 9 nM | 48 nM | 1160 nM | 5530 | 76 nM | 14 nM | 480 nM | 86 nM | 
